Measurements: PubChem BioAssay AID1963842 (Molecular Pharmacology Branch, DTP, NCI, 2024)

Test system: 677734-321-R-J1-PDC complex spheroid viability
Experiment: Anticancer human tumor 677734-321-R-J1-PDC patient-derived soft tissue sarcoma cell line growth inhibition [POLQ]
Settings: for IC50: curve of first compound; for viability, T/C: stronger effect = lower value
Method in brief: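 Growth inhibition in 3D: complex spheroids (tumor PDC, HUVEC, MSC) treated with POLQ inhibitor combinations; where Cmax unknown, highest tested concentration 10 microM, except SN-38 at 1 microM.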
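Also: spheroids exposed to compounds for one week.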
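For viability, T/C in this document: 100% = vehicle DMSO treated spheroids.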

CC(=O)O[C@H]1C(=O)[C@@]2(C)[C@H]([C@H](OC(=O)c3ccccc3)[C@]3(O)C[C@H](OC(=O)[C@H](O)[C@@H](NC(=O)c4ccccc4)c4ccccc4)C(C)=C1C3(C)C)[C@]1(OC(C)=O)CO[C@@H]1C[C@@H]2O + Nc1ccc(C#CCN(C(=O)Cc2ncc(C(F)(F)F)cc2C(F)(F)F)c2ccc(F)cc2)nn1
IC50 (second compound 0.0316 µM): < 9.49 nM | IC50 (second compound 0.1 µM): < 9.49 nM | IC50 (second compound 0.316 µM): < 9.49 nM | IC50 (second compound 1 µM): < 9.49 nM | IC50 (second compound 3.16 µM): < 9.49 nM | IC50 (second compound 10 µM): < 9.49 nM | viability, T/C (second compound 0.0316 µM, first compound 0.00949 µM): 21.6% | viability, T/C (second compound 0.0316 µM, first compound 0.03 µM): 15% | viability, T/C (second compound 0.0316 µM, first compound 0.0949 µM): 13.9% | viability, T/C (second compound 0.0316 µM, first compound 0.3 µM): 14.6% | viability, T/C (second compound 0.0316 µM, first compound 0.949 µM): 14.9% | viability, T/C (second compound 0.0316 µM, first compound 3 µM): 17.6% | viability, T/C (second compound 0.1 µM, first compound 0.00949 µM): 32.9% | viability, T/C (second compound 0.1 µM, first compound 0.03 µM): 18.3% | viability, T/C (second compound 0.1 µM, first compound 0.0949 µM): 14.2% | viability, T/C (second compound 0.1 µM, first compound 0.3 µM): 13.9% | viability, T/C (second compound 0.1 µM, first compound 0.949 µM): 14.3% | viability, T/C (second compound 0.1 µM, first compound 3 µM): 16.1% | viability, T/C (second compound 0.316 µM, first compound 0.00949 µM): 21.7% | viability, T/C (second compound 0.316 µM, first compound 0.03 µM): 17.9% | viability, T/C (second compound 0.316 µM, first compound 0.0949 µM): 14.7% | viability, T/C (second compound 0.316 µM, first compound 0.3 µM): 11.6% | viability, T/C (second compound 0.316 µM, first compound 0.949 µM): 13.8% | viability, T/C (second compound 0.316 µM, first compound 3 µM): 15.7% | viability, T/C (second compound 1 µM, first compound 0.00949 µM): 32.7% | viability, T/C (second compound 1 µM, first compound 0.03 µM): 17.1% | viability, T/C (second compound 1 µM, first compound 0.0949 µM): 16.6% | viability, T/C (second compound 1 µM, first compound 0.3 µM): 15% | viability, T/C (second compound 1 µM, first compound 0.949 µM): 13.3% | viability, T/C (second compound 1 µM, first compound 3 µM): 12.2% | viability, T/C (second compound 3.16 µM, first compound 0.00949 µM): 34.1% | viability, T/C (second compound 3.16 µM, first compound 0.03 µM): 16.9% | viability, T/C (second compound 3.16 µM, first compound 0.0949 µM): 11.8% | viability, T/C (second compound 3.16 µM, first compound 0.3 µM): 13.4% | viability, T/C (second compound 3.16 µM, first compound 0.949 µM): 13.5% | viability, T/C (second compound 3.16 µM, first compound 3 µM): 16.4% | viability, T/C (second compound 10 µM, first compound 0.00949 µM): 28.8% | viability, T/C (second compound 10 µM, first compound 0.03 µM): 16.4% | viability, T/C (second compound 10 µM, first compound 0.0949 µM): 12.6% | viability, T/C (second compound 10 µM, first compound 0.3 µM): 13.4% | viability, T/C (second compound 10 µM, first compound 0.949 µM): 13% | viability, T/C (second compound 10 µM, first compound 3 µM): 16.8%

CCc1c2c(nc3ccc(O)cc13)-c1cc3c(c(=O)n1C2)COC(=O)[C@]3(O)CC + Nc1ccc(C#CCN(C(=O)Cc2ncc(C(F)(F)F)cc2C(F)(F)F)c2ccc(F)cc2)nn1
IC50 (second compound 0.0316 µM): < 3.16 nM | IC50 (second compound 0.1 µM): < 3.16 nM | IC50 (second compound 0.316 µM): < 3.16 nM | IC50 (second compound 1 µM): < 3.16 nM | IC50 (second compound 3.16 µM): < 3.16 nM | IC50 (second compound 10 µM): < 3.16 nM | viability, T/C (second compound 0.0316 µM, first compound 0.00316 µM): 22.2% | viability, T/C (second compound 0.0316 µM, first compound 0.01 µM): 10.8% | viability, T/C (second compound 0.0316 µM, first compound 0.0316 µM): 5.47% | viability, T/C (second compound 0.0316 µM, first compound 0.1 µM): 4.82% | viability, T/C (second compound 0.0316 µM, first compound 0.316 µM): 4.02% | viability, T/C (second compound 0.0316 µM, first compound 1 µM): 1.51% | viability, T/C (second compound 0.1 µM, first compound 0.00316 µM): 19.4% | viability, T/C (second compound 0.1 µM, first compound 0.01 µM): 9.07% | viability, T/C (second compound 0.1 µM, first compound 0.0316 µM): 6.31% | viability, T/C (second compound 0.1 µM, first compound 0.1 µM): 5.31% | viability, T/C (second compound 0.1 µM, first compound 0.316 µM): 3.85% | viability, T/C (second compound 0.1 µM, first compound 1 µM): 1.25% | viability, T/C (second compound 0.316 µM, first compound 0.00316 µM): 24.3% | viability, T/C (second compound 0.316 µM, first compound 0.01 µM): 10.8% | viability, T/C (second compound 0.316 µM, first compound 0.0316 µM): 5.47% | viability, T/C (second compound 0.316 µM, first compound 0.1 µM): 4.33% | viability, T/C (second compound 0.316 µM, first compound 0.316 µM): 3.5% | viability, T/C (second compound 0.316 µM, first compound 1 µM): 1.28% | viability, T/C (second compound 1 µM, first compound 0.00316 µM): 22.5% | viability, T/C (second compound 1 µM, first compound 0.01 µM): 10.8% | viability, T/C (second compound 1 µM, first compound 0.0316 µM): 5.38% | viability, T/C (second compound 1 µM, first compound 0.1 µM): 5.22% | viability, T/C (second compound 1 µM, first compound 0.316 µM): 4.16% | viability, T/C (second compound 1 µM, first compound 1 µM): 1.16% | viability, T/C (second compound 3.16 µM, first compound 0.00316 µM): 22.5% | viability, T/C (second compound 3.16 µM, first compound 0.01 µM): 8.9% | viability, T/C (second compound 3.16 µM, first compound 0.0316 µM): 5.24% | viability, T/C (second compound 3.16 µM, first compound 0.1 µM): 4.43% | viability, T/C (second compound 3.16 µM, first compound 0.316 µM): 5.24% | viability, T/C (second compound 3.16 µM, first compound 1 µM): 1.3% | viability, T/C (second compound 10 µM, first compound 0.00316 µM): 25.9% | viability, T/C (second compound 10 µM, first compound 0.01 µM): 11% | viability, T/C (second compound 10 µM, first compound 0.0316 µM): 6.72% | viability, T/C (second compound 10 µM, first compound 0.1 µM): 4.78% | viability, T/C (second compound 10 µM, first compound 0.316 µM): 3.27% | viability, T/C (second compound 10 µM, first compound 1 µM): 1.35%
